Data published in US12589103B2, “Antimicrobial and antiviral effects of C2-C7 alkyl boronic acids” (CORNELL UNIVERSITY, priority 2019, dated 2026).
Entries after “also recorded” stand apart in the source; their conditions may differ.

Assays:
[1] = system: enteric pathogens (E. coli, Salmonella, Listeria monocytogenes, Klebsiella); experiment: Bacterial growth panel, OD600 growth-curve AUC ratio (heat map); assay type: cell-based
[2] = system: Gram Positive aerobes and probiotic species (Lactobacillus, Bifidobacteria); experiment: Bacterial growth panel, impact on non-target species (selectivity); assay type: cell-based
[3] = system: Listeria monocytogenes; experiment: Bacterial growth panel, Listeria; assay type: cell-based
Procedure: (§1) The control sample contained 40 mM NaCl.
Growth of bacteria with or without addition of C2-C8 C10, and C12 alkyl boronic acids, BA, or FMPBA was monitored by readings at OD600. […] The area under the curve (“AUC”) of the growth curve was calculated and the results were expressed as AUC+test compound:AUC−test compound.

[4] = system: diarrheagenic E. coli and APEC; experiment: Growth of diarrheagenic and APEC E. coli in LB media; assay type: cell-based; settings: 30 mM
Procedure: as §1
Diarrheagenic E. coli pathogroups differ by their preferential host colonization sites, virulence mechanisms, and clinical symptoms.

[5] = system: AIEC E. coli isolated from people (MDR and non-MDR strains); experiment: Growth of MDR and non-MDR E. coli associated with Crohn's disease; assay type: cell-based; settings: 40 mM, LB broth, 48 hrs
Procedure: The ability of C1-C3 alkyl boronic acids and BA to impact the growth of MDR E. coli isolated from people and dogs was evaluated using a temperature controlled 96-well multiplate incubator at 37° C. over 48 hrs. Growth in media (LB broth) with and without ABA C2-6 (40 mM) was monitored by readings at OD600 with the AUC of the growth curve calculated.

[6] = system: AIEC and cancer associated E. coli; experiment: Soft agar motility assay, E. coli; assay type: cell-based; settings: 10 h, AIEC NC101, 541-1, cancer associated E. coli
Procedure: (§2) The ability of ABA C1-3 and BA to impact the motility of E. coli and Salmonella was evaluated using sloppy agar treated with and without BA and C1-C3 alkyl boronic acids. Motility is strongly linked to the virulence phenotype of these bacterial strains. E. coli was grown overnight at 37° C. in LB broth. Soft agar plates (1% tryptone, 0.5% NaCl, 0.25% agar) were prepared the day before the assay was carried out. Sterile NaCl (control), boric or boronic acid stock solution was added into the agar right before pouring the plates. The overnight cultures of E. coli were transferred (3 μl) on to the center of each plate, followed by incubation of the plates at 37° C. for 10 h. E. coli motility was quantified by measuring the diameter of the circular swarming area formed by the growing motile bacteria.

[7] = system: Salmonella; experiment: Soft agar motility assay, Salmonella; assay type: cell-based; settings: % motility of the control
Procedure: as §2

[8] = system: nF-κB; experiment: E. coli induced nF-κB activation in HEK-Blue KD-TLR5 cells (SEAP reporter); assay type: cell-based; settings: m.o.i 20, SEAP at 24 h
Procedure: HEK-Blue KD-TLR5 cells were used to detect the promotor activation of nF-κB by E. coli infection with or without boric or boronic acid treatment. nF-κB is the prototypical transcription factor for pro-inflammatory cytokines in epithelium. Briefly, cells were seeded in 96-well plates at a density of 5×10^4 cells per well. E. coli was diluted into fresh cell medium containing either NaCl (Control), boric or boronic acid at an m.o.i of 200 as 10× inocula, followed by addition of this inoculum (10 μl) into each well containing 100 μl of medium for a final m.o.i of 20. At 3 h post infection, the cell medium was carefully removed from each well, and replaced with 100 μl of fresh medium containing gentamycin (200 μg mL^−1). At 24 h post infection, the spent medium was collected, and centrifuged at 12,000 r.p.m. for 5 min to remove any particulate matter. QUANTI-Blue Kit (InvivoGen, San Diego, CA, USA) was used to detect the reporter protein SEAP (secreted alkaline phosphatase) following the manufacturer's instructions.

[9] = system: AIEC 541-1 and LF82; experiment: Adhesion and invasion of Caco-2 cells by AIEC; assay type: cell-based, E. coli; settings: 30 mM, m.o.i 10, 3 h
Procedure: E. coli was cultured overnight in LB at 37° C. with shaking. Bacterial pellets were re-suspended in PBS before dilution in cell culture media±30 mM boronic acid or alkyl boronic acid to an m.o.i (multiplicity of infection) of 10. Caco-2 cells were infected with the diluted E. coli for 3 h at 37° C. before washing with PBS, then lysed with 1% Triton X-100. Serial dilutions of the lysates were made in PBS and plated on LB agar. The total number of colonies recovered was used to calculate the number of adherent bacteria. For invasion assays, cells were treated with gentamicin (100 μg mL−1) for one hour after initial infection and 3× wash with PBS to kill extracellular bacteria. Cells were then washed 3× after gentamicin treatment, lysed and plated as described above.

[10] = system: Salmonella; experiment: Adhesion and invasion of colonic epithelial cells by Salmonella; assay type: cell-based
[11] = system: AIEC in murine macrophage J774A.1 cells; experiment: Uptake and survival of AIEC in J774A.1 macrophages; assay type: cell-based, E. coli
[12] = system: AIEC E. coli (541-1, LF82) virulence genes; experiment: Virulence gene expression of AIEC (qRT-PCR); assay type: cell-based; settings: 30 mM
Procedure: Total RNA was extracted using the Qiagen RNAProtect-RNeasy Kit per manufacturer's protocol. Total RNA was treated with TURBO DNA-Free Kit (Ambion), followed by a two-step qRT-PCR analysis, using Qiagen's QuantiTect Reverse Transcription Kit and QuantiNova SYBR Green PCR Kit. Each qPCR reaction contained 1 μl of cDNA, 0.7 μl of each forward and reverse primers (10 μM), 5 μL of 2× SYBR Green Master Mix, 1 μl of QN ROX Reference Dye and […] of nuclease-free water to make the total volume of 10 μl. The reaction was run with ABI7000 (Applied Biosystems). […] The relative change of a targeted gene expression was calculated by using the equation RQ=2^−ΔΔCT.

[13] = assay type: in vivo, mouse
Source text: This novel observation of an anti-inflammatory effect of EBA was corroborated in subsequent collaborative studies. […] These experiments confirm that EBA has an anti-inflammatory effect in two distinct murine models of microbially driven IBD.

[14] = system: cancer associated E. coli (HM288); experiment: Growth in M9 media; settings: EBA 10-40 mM
[15] = system: Feline Lung cells; experiment: Cytotoxicity in FIPV infected Feline Lung cells

CCB(O)O [EBA, ethyl boronic acid]
antibacterial activity / potency against enteric pathogens (growth, AUC+test compound:AUC−test compound) ([1]; 40 mM (BA, EBA, PBA), 20 mM (BBA), 10 mM (PeBA), 5 mM (HBA, SBA), 1 mM (OBA), 0.5 mM (DBA), 2 mM (DoDBA), 20 mM (FMPBA), 24-48 hrs): higher potency against enteropathogens | selectivity for Gram Negative enteropathogens ([1]; growth panel): highest | selectivity against Probiotic spp ([2]; compared with BA): more selective than BA | selectivity versus Gram Positive aerobes ([2]; compared with BA): more selective than BA | selectivity: impact on Gram Positive aerobes and probiotic species ([2]; same concentrations as growth panel): less impact on probiotic Lactobacillus, Bacillus, and Gram Positive aerobes; also recorded: more selective than DoDBA; also recorded: more selective than C3-C7 alkyl boronic acids | selectivity of activity against Listeria monocytogenes [3]: selectivity apparent | inhibition of growth of diarrheagenic and APEC E. coli [4]: have activity versus the diarrheagenic E. coli and APEC that varies by pathogroup; also recorded: more effective in inhibiting bacterial growth than BA overall | growth inhibition of Crohn's disease associated AIEC, MDR and non-MDR [5]: more effective than BA over a wider range of AIEC, including MDR and non-MDR strains | motility of E. coli [6]: highly effective at blocking motility of AIEC and cancer associated E. coli | motility of Salmonella [7]: highly effective at blocking motility of Salmonella | induction of nF-κB by E. coli [8]: reduced the induction of nF-κB by E. coli | adhesion and invasion of Caco-2 by AIEC [9]: suppress adhesion and invasion of Caco-2 by AIEC 541-1 and LF82 | suppression of adhesion and invasion of Salmonella [10]: 40-50% | survival of AIEC in J774A.1 macrophages ([11]; 30 mM during infection, 24 h post infection): inhibited the survival | uptake of AIEC by J774A.1 macrophages ([11]; 30 mM, 1 h): inhibited the uptake | pduC expression in 541-1 [12]: Upregulation | virulence gene expression of AIEC ([12]; mid log phase, compared with BA): inhibited virulence gene expression | intestinal inflammation, fecal lipocalin and histopathology ([13]; SIHUMI colonized 11-10−/− mouse): markedly reduced intestinal inflammation | adverse or pro-inflammatory effects ([13]; mouse, in vivo): no adverse or pro-inflammatory effects | inhibition of growth of cancer associated E. coli HM288 [14]: effective | cytotoxicity in antiviral assay [15]: Cytotoxicity was not observed at antiviral doses
